Laboratory results reported in patent US8153368B2, “Four-jointed box (FJX1) in cancer diagnosis and treatment” (Vanderbilt University, priority 2007, dated 2012).

Columns and labels:
[1] = test system: FJX1 mRNA; test: qRT-PCR of FJX1 expression in rectal cancer biopsies before and after celecoxib; type: in vivo, human; details: range in the four of five rectal cancers that were down-regulated; pre vs post treatment
[2] = test system: FJX1 mRNA in SW480 colon cancer cells; test: qRT-PCR of FJX1 mRNA after γ-secretase inhibition in SW480 cells; type: cell-based, human; details: 200 nM DAPT vs vehicle (DMSO), 16 hrs
Experimental: FIG. 3—Decreased FJX1 expression following inhibition of […] (DAPT) in SW480 colon cancer cells. Cells were grown to 70-80% confluence using complete RPMI and then treated with 200 nM of DAPT or vehicle. The RNA was harvested 16 hrs later using an RNeasy™ kit (Qiagen). qRT-PCR was performed as outlined in the text. Gene expression values were normalized to a housekeeping gene (PMM1) for the final analysis. The values are expressed as fold-change in comparison to normal colonic mucosal levels.
(§1) FIG. 19A-B—Inhibition of Notch signaling causes a reduction in fjx1 expression in colon cancer cells. Fjx1 expression levels as determined by qRT-PCR in (FIG. 19A) SW480 and (FIG. 19B) SW620 colon cancer cells following treatment with the γ-secretase inhibitor DAPT.
Since four-jointed in Drosophila is regulated by Notch signaling, and mouse fjx1 expression appears to be a target of Notch regulation, the inventors predicted that inhibition of Notch signaling would inhibit FJX1 expression in colon cancer cells. A reliable pharmacological method of inhibiting Notch signaling is to block release of the Notch intracellular domain through inhibition of γ-secretase activity (van Es et al., 2005). Therefore, the inventors used a selective inhibitor of γ-secretase, DAPT, or vehicle (DMSO) to treat SW480 and SW620 cells for 16 hrs and determined the effect on levels of FJX1. […]

[3] = test system: Notch pathway; test: Notch-responsive reporter (4xCSL-Luc) in SW480 cells; type: cell-based, human; details: data not shown
Excerpt: FJX1 expression in colon cancer cells. In preliminary studies examining the role of fjx1 as it relates to Notch signaling in CRC, the inventors have assessed expression of fjx1 mRNA in several human colon cancer cell lines and found abundant expression of fjx1 in both SW480 and SW620 cells (in comparison with colon adenomas), and less abundant expression in HT29 cells as determined by qRT-PCR (data not shown). Since four-jointed in Drosophila is regulated by Notch signaling, and mouse fjx1 expression appears to be a target of Notch regulation, the inventors predicted that inhibition of Notch signaling would inhibit fjx1 expression in colon cancer cells. A reliable pharmacological method of inhibiting Notch signaling is to block release of the Notch intracellular domain through inhibition of γ-secretase activity (van Es, 2005). A complementary genetic method of Notch inhibition is through the use of a truncated, dominant negative construct of Mastermind or “dnMAM” (pCS2-Myc 1-30aa Mastermind a gift from K. A. Jones, Ph.D., the Salk Institute, La Jolla, Calif.) (Fryer, 2002). The dnMAM is mutated such that it cannot form a functional RBPJ complex and therefore, cannot activate the Notch responsive promoter. […] The inventors have also used DAPT treatments of SW480 and SW620 cells (200 nM for 16 hrs) to block expression of fjx1 in response to Notch signaling (FIG. 19).

[4] = test system: Notch pathway; test: Notch-responsive reporter (4xCSL-Luc) in HEK293T cells; type: cell-based, human; details: transient transfection, DAPT 200 nM or dnMAM
Experimental: FIGS. 18A-B—Experimental inactivation of Notch pathway signaling in HEK293 cells. Transient transfections of cells was carried out using a Notch promoter reporter plasmid (4xCSL) and a control reporter (pRL-tk). The Relative Light Units (4xCSL/pRL-tk) are plotted for each treatment group. (FIG. 18A) Notch activity in HEK293 cells following treatment with NICD, NICD+200 nM DAPT, LNG (negative control), LNG+200 nM DAPT and 200 nM DAPT. (FIG. 18B) Notch promoter activity in HEK293 cells following treatment with dnMAM, NICD, NICD+dnMAM, LNG and LNG+dnMAM.
FJX1 expression in colon cancer cells. In preliminary studies examining the role of fjx1 as it relates to Notch signaling in CRC, the inventors have assessed expression of fjx1 mRNA in several human colon cancer cell lines and found abundant expression of fjx1 in both SW480 and SW620 cells (in comparison with colon adenomas), and less abundant expression in HT29 cells as determined by qRT-PCR (data not shown). Since four-jointed in Drosophila is regulated by Notch signaling, and mouse fjx1 expression appears to be a target of Notch regulation, the inventors predicted that inhibition of Notch signaling would inhibit fjx1 expression in colon cancer cells. A reliable pharmacological method of inhibiting Notch signaling is to block release of the Notch intracellular domain through inhibition of γ-secretase activity (van Es, 2005). […]

[5] = test system: FJX1 mRNA in SW620 colon cancer cells; test: qRT-PCR of FJX1 mRNA after γ-secretase inhibition in SW620 cells; type: cell-based, human; details: 200 nM DAPT vs vehicle (DMSO), 16 hrs
Excerpt: as §1
Since four-jointed in Drosophila is regulated by Notch signaling, and mouse fjx1 expression appears to be a target of Notch regulation, the inventors predicted that inhibition of Notch signaling would inhibit FJX1 expression in colon cancer cells. A reliable pharmacological method of inhibiting Notch signaling is to block release of the Notch intracellular domain through inhibition of γ-secretase activity (van Es et al., 2005). Therefore, the inventors used a selective inhibitor of γ-secretase, DAPT, or vehicle (DMSO) to treat SW480 and SW620 cells for 16 hrs and determined the effect on levels of FJX1.
FJX1 expression in colon cancer cells. In preliminary studies examining the role of fjx1 as it relates to Notch signaling in CRC, the inventors have assessed expression of fjx1 mRNA in several human colon cancer cell lines and found abundant expression of fjx1 in both SW480 and SW620 cells (in comparison with colon adenomas), and less abundant expression in HT29 cells as determined by qRT-PCR (data not shown). […]

SMILES: Cc1ccc(-c2cc(C(F)(F)F)nn2-c2ccc(S(N)(=O)=O)cc2)cc1 [celecoxib]
- fjx1 mRNA decrease after Celecoxib treatment (qRT-PCR) [1]: 2.5-17.5 fold decrease

SMILES: C[C@H](NC(=O)Cc1cc(F)cc(F)c1)C(=O)N[C@H](C(=O)OC(C)(C)C)c1ccccc1 [DAPT]
- levels of FJX1 mRNA [2]: reduced the levels of FJX1 mRNA
- Notch promoter reporter activity (4xCSL-Luc) [3]: specific Notch pathway inhibition
- Notch promoter reporter activity (4xCSL/pRL-tk relative light units) [4]: specific Notch pathway inhibition
- levels of FJX1 mRNA [5]: reduced the levels of FJX1 mRNA
